Data as given in patent US20200038338A1, “LONG TERM DRUG DELIVERY BY TATTOO” (priority 2018, published 2020).

Key:
psoriatic plaques = test: Treatment of psoriasis: methotrexate delivered to the dermal layer by tattoo machine; format: in vivo; conditions: control: 25 mg/ml methotrexate by injection once a month for 9 months
[1] = tested on: androgenetic alopecia (hair loss); conditions: minoxidil microinjections once a month for four months; cited from earlier work
[2] = tested on: terminal hairs of beard or scalp (alopecia); test: Treatment of alopecia: minoxidil delivered to the dermis by tattoo machine; format: in vivo; conditions: 5 wt % minoxidil suspension in PEG 400 by tattoo to dermis, once every 2 months, after 6 months (3 sessions); versus control side with minoxidil in water to saturation; three subjects
Experimental: A suspension of minoxidil suspension at 5 wt % is created in a PEG 400 vehicle. As a control minoxidil is added to water to saturation. The test and control agents are delivered by tattoo machine to the dermis on independent sides of the face (either beard, eyebrow, or scalp) of the same subject once every 2 months for 6 months (i.e. 3 administrations). Three different subjects were tested. The side that was treated in the beard or scalp had approximately 300% more terminal (thick, strong) hairs per unit area, after 6 months (3 sessions).

[3] = tested on: basal cell carcinoma (BCC); test: Treatment of basal cell carcinoma: vismodegib delivered by tattoo machine

With `CN(Cc1cnc2nc(N)nc(N)c2n1)c1ccc(C(=O)N[C@@H](CCC(=O)O)C(=O)O)cc1` [methotrexate] the “side effects, control” value (psoriatic plaques) was “increased liver enzymes”.

For `Nc1cc(N2CCCCC2)nc(N)[n+]1[O-]` [minoxidil], the “side effects noted by the subjects” value [1] is given as “No side effects were noted by the subjects, besides minor localized pain” and the “more terminal (thick, strong) hairs per unit area on the treated side” value [2] is given as “approximately 300%”.

With `CS(=O)(=O)c1ccc(C(=O)Nc2ccc(Cl)c(-c3ccccn3)c2)c(Cl)c1` [vismodegib] the “side effects, control” value ([3]; control: vismodegib orally for 6 months) was “muscle tremors, loss of appetite, reduction of smell and taste”, the “BCCs resolved, control” value ([3]; control: vismodegib orally, first 6 months) was 50% and the “clearance of the BCC” value ([3]; vismodegib suspension with polyethylene glycol by tattoo machine, once a week for 6 months) was 90%.
